Test results reported in PMC12530843, “Identification of a New Interesting BAG3 Modulator Able to Disrupt Cancer‐Related Pathways” (Chemmedchem, 2025).
Where two headings read alike, the source gives them in different places.

Columns and labels:
BAG3 full length = molecular target: T1, BAG3 full length (Homo sapiens, UniProt O95817); experiment: SPR binding on full-length BAG3; conditions: Biacore T200, 25 °C, 1:1 model; for Kd: read-out: BAG3 FULL KD ± SD
T1 construct: purchased Novus Biologicals (Littleton, Colorado)
Procedure: (§1) Recombinant human BAG3 protein (Bcl2‐associated athanogene 3) was obtained from Novus Biologicals (Littleton, Colorado), while the BAG3 domain (BAG3‐BD) was sourced from ARETA International S.r.l. (Gerenzano, Italy). We used (Z)‐ethyl 2‐(5‐(3,4‐dihydroxybenzylidene)‐2,4‐dioxothiazolidin‐3‐yl)acetate (LK4), a BAG3 inhibitor previously identified by our group.^[ [13] ^] SPR spectroscopy was performed using a Biacore T200 optical biosensor with CM5 sensor chips (Cytiva, Marlborough, USA) to assess the affinity of synthesized molecules for BAG3 and BAG‐BD. BAG3 and BAG‐BD were immobilized on CM5 sensor chip using standard amine‐coupling protocol.^[ [15] ^, [42] ^, [43] ^] BAG3 protein (0.067 μg μL^−1 in 10 mM CH3COONa, pH 4.5) was immobilized at a flow rate of 10 μL min^−1, achieving a surface density of 14 kRU, while BAG3‐BD (0.38 μg μL^−1 in 10 mM CH3COONa, pH 4.5) reached a density of 4 kRU. For the experiments, BAG3 and BAG‐BD surfaces, as well as an unmodified reference surface, were prepared for simultaneous analysis. Compounds 1–10 and LK4 were initially dissolved to 10 mM in 100% DMSO, then diluted 1:20 (v/v) in PBS‐P buffer (0.2 M phosphate buffer, 27 mM KCl, 1.37 M NaCl, 0.5% surfactant P20) resulting in a final DMSO concentration of 5.0%. The compounds were injected in a concentration series (1:2 dilution, 10 different concentrations) ranging from 0 to 100 μM, using 96‐well plates. SPR experiments were conducted at 25 °C with a flow rate of 20 μL min^−1, featuring a 90 s association phase followed by a 400 s dissociation phase. Changes in mass, recorded as resonance units (RU), were used to quantify binding responses, while K D values were determined using Biaevaluation software by globally fitting the double‐referenced association and dissociation data to a 1:1 interaction model. (See Figure S43–S56, Supporting Information).

BAG3-BD = molecular target: T2, BAG3-BD (Homo sapiens, UniProt O95817); experiment: SPR binding on BAG3 BAG domain; conditions: Biacore T200, 25 °C, 1:1 model; for Kd: read-out: BAG3–BD KD ± SD
T2 construct: the BAG3 domain (BAG3‐BD) was sourced from ARETA International S.r.l; (Gerenzano, Italy); purchased ARETA International S.r.l
T2 sequence (O95817 421-498 limits assumed): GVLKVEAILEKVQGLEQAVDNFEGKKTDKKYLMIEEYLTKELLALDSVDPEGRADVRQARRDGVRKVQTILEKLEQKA
Procedure: as §1

HeLa cells [1] = experiment: MTT cell viability, HeLa; assay type: cell-based
Procedure: (§2) Human cell lines of lung adenocarcinoma (A549), cervical carcinoma (HeLa), malignant melanoma (A375), breast adenocarcinoma (MCF7), and immortalized human keratinocytes (HaCaT) were cultured in high‐glucose DMEM supplemented with FBS (10%, v/v), glutamine (2 mM L^−1), penicillin (100 U mL^−1), and streptomycin ([…]). Cells were maintained at 37 °C in a humidified 5% CO2 atmosphere and subcultured every 2 days to maintain logarithmic growth. The human cell lines were kindly donated by Prof. Ornella Moltedo, Department of Pharmacy, University of Salerno.^[ [15] ^, [44] ^]
Cell viability was evaluated using a colorimetric assay to measure mitochondrial metabolic activity through the reduction of 3‐[4,5‐dimethylthiazol‐2,5‐diphenyl‐2H‐tetrazolium bromide (MTT) to purple formazan. Stock solutions of SP18 and compounds 1, 2, 5–8 (50 mM in DMSO) were stored at −20 °C in the dark and diluted immediately before addition to the sterile culture medium. The final concentration of DMSO for the tested compounds was 0.1%, which was consistent with the percentage of DMSO used in the negative control. A549 (3.5 × 10³ cells well^−1), HeLa (3.5 × 10³ cells well^−1), A375 (5.0 × 10³ cells well^−1), and MCF7 (3.5 × 10³ cells well^−1) cells were seeded in triplicate in 96‐well plates. After 24 h to allow for attachment, cells were treated with various concentrations of the compounds (10 and 50 µM), using 0.1% (v/v) DMSO as a negative control and 10% (v/v) DMSO as a positive control following treatment, 20 μL of MTT solution (5 mg mL^−1 in PBS) were added to each well, and cells were incubated for 3 h at 37 °C. Formazan crystals were then dissolved in 100 μL of a buffer containing 50% (v/v) N,N‐dimethylformamide and 20% SDS (pH 4.5), and absorbance was measured at 570 nm using a Multiskan GO Microplate Spectrophotometer (Thermo Fisher Scientific, USA).^[ [44] ^] […] IC50 values, defined as the concentration causing 50% inhibition of cell survival, were calculated and compared to DMSO‐treated controls using GraphPad Prism 8.0 software via nonlinear regression. IC50 values for SP18 and compound 2 were also determined in HaCaT cells (5.0 × 10³ cells well^−1) after 48 or 72 h of treatment.^[ [15] ^]

HaCaT cells = experiment: MTT cell viability, HaCaT healthy keratinocytes; assay type: cell-based, human
Procedure: as §2
Cell viability was evaluated using a colorimetric assay to measure mitochondrial metabolic activity through the reduction of 3‐[4,5‐dimethylthiazol‐2,5‐diphenyl‐2H‐tetrazolium bromide (MTT) to purple formazan. Stock solutions of SP18 and compounds 1, 2, 5–8 (50 mM in DMSO) were stored at −20 °C in the dark and diluted immediately before addition to the sterile culture medium. The final concentration of DMSO for the tested compounds was 0.1%, which was consistent with the percentage of DMSO used in the negative control. […] Formazan crystals were then dissolved in 100 μL of a buffer containing 50% (v/v) N,N‐dimethylformamide and 20% SDS (pH 4.5), and absorbance was measured at 570 nm using a Multiskan GO Microplate Spectrophotometer (Thermo Fisher Scientific, USA).^[ [44] ^] […]

HeLa cells [2] = experiment: Cell cycle / hypodiploid nuclei by PI flow cytometry; assay type: cell-based, human
Procedure: Hypodiploid nuclei were analyzed by propidium iodide (PI) staining using flow cytometry. HeLa cells (1 × 10^5 cells well^−1) were cultured in 12‐well plates and allowed to adhere for 24 h. The medium was then refreshed, and cells were treated with SP18 (0.75, 1.5, 3, 6, and 12 µM) for 48 h or compound 2 (10, 30, and 50 µM) for 72 h, with 0.1% (v/v) DMSO as a control. The final concentration of DMSO for the tested compounds was 0.1%, which is consistent with the percentage of DMSO used in the negative control. Following treatment, the culture medium was replaced, and cells were washed twice with PBS before being resuspended in 500 μL of a solution containing 50 mg L^−1 PI, 0.1% (w/v) sodium citrate, and 0.1% Triton X‐100. To include both dead and live cells in the analysis, the culture medium and PBS washes were centrifuged, and the resulting cell pellets were combined with the main cell suspension. Cells were then incubated at 4 °C for 30 min in the dark, and nuclei were analyzed using a Becton Dickinson FACScan flow cytometer (Franklin Lakes, USA) with Cell Quest software. DNA content was recorded, and cellular debris was excluded by adjusting the forward scatter threshold. The percentage of cells in the hypodiploid region (sub‐G0) and those in the G1, S, and G2 phases were calculated.^[ [45] ^] (See Figure S57–S58, Supporting Information).

T1 sequence (O95817 whole entry): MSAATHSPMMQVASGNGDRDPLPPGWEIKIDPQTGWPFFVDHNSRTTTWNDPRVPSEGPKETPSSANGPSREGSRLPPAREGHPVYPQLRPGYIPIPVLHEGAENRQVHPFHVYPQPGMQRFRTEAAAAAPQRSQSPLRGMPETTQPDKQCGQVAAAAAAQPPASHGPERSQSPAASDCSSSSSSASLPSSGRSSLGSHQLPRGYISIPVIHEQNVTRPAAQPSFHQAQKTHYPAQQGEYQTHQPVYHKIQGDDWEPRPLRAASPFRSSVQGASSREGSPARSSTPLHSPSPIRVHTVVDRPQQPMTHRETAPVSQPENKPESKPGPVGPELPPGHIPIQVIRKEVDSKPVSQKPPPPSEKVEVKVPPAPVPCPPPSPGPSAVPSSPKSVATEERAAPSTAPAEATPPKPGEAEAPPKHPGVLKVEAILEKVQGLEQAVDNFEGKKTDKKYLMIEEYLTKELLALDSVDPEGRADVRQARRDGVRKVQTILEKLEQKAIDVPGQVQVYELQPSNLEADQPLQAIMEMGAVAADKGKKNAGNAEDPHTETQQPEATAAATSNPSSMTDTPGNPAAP

Row | SMILES | Kd (BAG3 full length) | Kd (BAG3-BD) | cytotoxicity against HeLa cells (screen) (HeLa cells [1]; 10 and 50 µM, 72 h) | IC50 (HeLa cells [1]; Homo sapiens, HeLa, 48 h of treatment, read-out: IC50 against HeLa) | IC50 (HaCaT cells; Homo sapiens, HaCaT, 48 h, seven concentrations, MTT) | effect on cell cycle / hypodiploid nuclei (HeLa cells [2]; 48 h, 0.75 to 12 µM) | BAG3 FULL KD ± SD (BAG3 full length) | BAG3–BD KD ± SD (BAG3-BD) | mortality at 50 µM (HeLa cells [1]; Homo sapiens, HeLa, 50 µM, 72 h) | IC50 (HeLa cells [1]; Homo sapiens, HeLa, 72 h of exposure, read-out: IC50 on HeLa cells) | cytotoxicity on healthy HaCaT cells (HaCaT cells; 72 h, up to 70 µM (highest concentration tested)) | effect on cell cycle / hypodiploid nuclei (HeLa cells [2]; 72 h, 10, 30 and 50 µM)
1 | O=C(OCc1cn(Cc2ccc(C(=O)c3ccccc3)cc2)nn1)c1cccc([N+](=O)[O-])c1 [SP18] | 36 ± 0.85 µM | 43.5 ± 5.09 µM | significant cytotoxicity | 14.8 ± 1.34 µM | 22.1 ± 0.67 µM | induces hypodiploid nuclei formation in a concentration‐dependent manner and causes an S‐phase block | – | – | – | – | – | –
2 | O=C(OCc1cn(Cc2ccc3c(c2)C(=O)c2ccccc2C3=O)nn1)c1cccc([N+](=O)[O-])c1 [Compound 2, (1‐((9,10‐Dioxo‐9,10‐dihydroanthracen‐2‐yl)methyl)‐1H‐1,2,3‐triazol‐4‐yl)methyl 3‐nitrobenzoate] | 1.04 ± 0.03 µM | 0.38 ± 0.05 µM | – | – | – | – | low micromolar range | low micromolar range | ~70% | 40.8 ± 5.5 µM | no significant cytotoxicity | induces hypodiploid nuclei formation in a concentration‐dependent manner
